molecular target: T1, human CGT (Homo sapiens, UniProt Q16880); experiment: Assay 1: CGT Enzymatic Assay (RapidFire/MS/MS, 0.01% Tween 80); type: biochemical; details: Table 1, Compounds of Formula (I) and Formula (II); CGT enzymatic assay; read-out: IC50
T1 sequence (Q16880 21-541): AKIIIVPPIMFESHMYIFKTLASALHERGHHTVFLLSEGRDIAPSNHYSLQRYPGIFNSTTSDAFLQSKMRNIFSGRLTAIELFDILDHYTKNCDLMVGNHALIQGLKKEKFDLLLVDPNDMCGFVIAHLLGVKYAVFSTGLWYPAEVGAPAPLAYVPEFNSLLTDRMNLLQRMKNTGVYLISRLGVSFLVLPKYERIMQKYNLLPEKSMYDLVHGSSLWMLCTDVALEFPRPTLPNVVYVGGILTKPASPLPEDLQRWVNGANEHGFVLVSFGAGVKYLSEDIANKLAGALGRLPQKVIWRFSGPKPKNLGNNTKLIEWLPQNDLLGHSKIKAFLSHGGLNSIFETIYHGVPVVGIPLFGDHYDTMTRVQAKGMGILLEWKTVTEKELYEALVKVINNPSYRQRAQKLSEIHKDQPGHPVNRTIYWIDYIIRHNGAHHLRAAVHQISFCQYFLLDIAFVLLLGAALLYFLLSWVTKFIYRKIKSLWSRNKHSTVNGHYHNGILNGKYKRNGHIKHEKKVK

Row | SMILES | IC50 [nM]
1 | Cc1cc(C#N)cc(C2(O)CN(c3ccc(Cl)cc3)C(=O)N2c2ccc(Cl)cc2)c1 (centres unmarked) [Compound 102, 3-(1,3-bis(4-chlorophenyl)-4-hydroxy-2-oxoimidazolidin-4-yl)-5-methylbenzonitrile] | 1000 to 10000
2 | Cc1cccc(N2C(=O)N(c3cccc(C)c3)C(O)(c3cccc(OC(F)(F)F)c3)C2C)c1 (centres unmarked) [Compound 107, 4-hydroxy-5-methyl-1,3-di-m-tolyl-4-(3-(trifluoromethoxy)phenyl)imidazolidin-2-one] | < 1000
3 | C#Cc1cc(Cl)cc(C2(O)CN(c3ccc(Cl)cc3)C(=O)N2c2ccc(Cl)cc2)c1 (centres unmarked) [Compound 108, 4-(3-chloro-5-ethynylphenyl)-1,3-bis(4-chlorophenyl)-4-hydroxyimidazolidin-2-one] | 1000 to 10000
4 | N#Cc1cc(Cl)cc(C2(O)CN(c3ccc(Br)cc3)C(=O)N2c2ccc(Cl)cc2)c1 (centres unmarked) [Compound 110, 3-(1-(4-bromophenyl)-3-(4-chlorophenyl)-4-hydroxy-2-oxoimidazolidin-4-yl)-5-chlorobenzonitrile] | < 1000
5 | N#Cc1ccc(N2CC(O)(c3ccccc3)N(c3ccc(C#N)cc3)C2=O)cc1 (centres unmarked) [Compound 111, 4,4′-(4-hydroxy-2-oxo-4-phenylimidazolidine-1,3-diyl)dibenzonitrile] | > 50000
6 | CCC[C@@H]1N(c2ccc(Br)cc2)C(=O)N(c2ccc(Br)cc2)C1(O)c1cccc(OC(F)(F)F)c1 (stereo partly drawn) [Compound 112-1, (5S)-1,3-bis(4-bromophenyl)-4-hydroxy-5-propyl-4-(3-(trifluoromethoxy)phenyl)imidazolidin-2-one] | < 1000
7 | CCC[C@H]1N(c2ccc(Br)cc2)C(=O)N(c2ccc(Br)cc2)C1(O)c1cccc(OC(F)(F)F)c1 (stereo partly drawn) [Compound 112-2, (5R)-1,3-bis(4-bromophenyl)-4-hydroxy-5-propyl-4-(3-(trifluoromethoxy)phenyl)imidazolidin-2-one] | < 1000
8 | N#Cc1cc(Cl)cc(C2(O)CN(c3ccc(Br)cc3)C(=O)N2c2ccc(Br)cc2)c1 (centres unmarked) [Compound 113, 3-(1,3-bis(4-bromophenyl)-4-hydroxy-2-oxoimidazolidin-4-yl)-5-chlorobenzonitrile] | 1000 to 10000
9 | O=C1N(c2ccc(Br)cc2)C(C2CC2)C(O)(c2ccccc2)N1c1ccc(Br)cc1 (centres unmarked) [Compound 115, 1,3-bis(4-bromophenyl)-5-cyclopropyl-4-hydroxy-4-phenylimidazolidin-2-one] | < 1000
10 | O=C1N(c2ccc(Br)cc2)[C@@H](C2CC2)C(O)(c2ccccc2)N1c1ccc(Br)cc1 (stereo partly drawn) [Compound 115-1, (5S)-1,3-bis(4-bromophenyl)-5-cyclopropyl-4-hydroxy-4-phenylimidazolidin-2-one] | < 1000
11 | O=C1N(c2ccc(Br)cc2)[C@H](C2CC2)C(O)(c2ccccc2)N1c1ccc(Br)cc1 (stereo partly drawn) [Compound 115-2, (5R)-1,3-bis(4-bromophenyl)-5-cyclopropyl-4-hydroxy-4-phenylimidazolidin-2-one] | < 1000
12 | CC1(C)N(c2ccc(Br)cc2)C(=O)N(c2ccc(Br)cc2)C1(O)c1ccccc1 (centres unmarked) [Compound 120, 1,3-bis(4-bromophenyl)-4-hydroxy-5,5-dimethyl-4-phenylimidazolidin-2-one] | < 1000
13 | CC1(c2ccccc2)N(c2ccc(Cl)cc2)C(=O)N(c2ccc(Cl)cc2)C1(O)c1ccccc1 (centres unmarked) [Compound 121, 1,3-bis(4-chlorophenyl)-4-hydroxy-5-methyl-4,5-diphenylimidazolidin-2-one] | 1000 to 10000
14 | C[C@@]1(c2ccccc2)N(c2ccc(Cl)cc2)C(=O)N(c2ccc(Cl)cc2)[C@]1(O)c1ccccc1 [Compound 121-1, (4S,5S)-1,3-bis(4-chlorophenyl)-4-hydroxy-5-methyl-4,5-diphenylimidazolidin-2-one] | 10000 to 50000
15 | C[C@@]1(c2ccccc2)N(c2ccc(Cl)cc2)C(=O)N(c2ccc(Cl)cc2)[C@@]1(O)c1ccccc1 [Compound 121-2, (4R,5S)-1,3-bis(4-chlorophenyl)-4-hydroxy-5-methyl-4,5-diphenylimidazolidin-2-one] | > 50000
16 | C[C@]1(c2ccccc2)N(c2ccc(Cl)cc2)C(=O)N(c2ccc(Cl)cc2)[C@]1(O)c1ccccc1 [Compound 121-3, (4S,5R)-1,3-bis(4-chlorophenyl)-4-hydroxy-5-methyl-4,5-diphenylimidazolidin-2-one] | > 50000

Next, values leading:

Row | IC50 [nM] | SMILES
17 | < 1000 | CC#Cc1cccc(C2(O)C(C)N(c3ccc(Cl)cc3)C(=O)N2c2ccc(Cl)cc2)c1 (centres unmarked) [Compound 103, 1,3-bis(4-chlorophenyl)-4-hydroxy-5-methyl-4-(3-(prop-1-yn-1-yl)phenyl)imidazolidin-2-one]
18 | < 1000 | CC#Cc1cccc(C2(O)[C@H](C)N(c3ccc(Cl)cc3)C(=O)N2c2ccc(Cl)cc2)c1 (stereo partly drawn) [Compound 103-1, (5S)-1,3-bis(4-chlorophenyl)-4-hydroxy-5-methyl-4-(3-(prop-1-yn-1-yl)phenyl)imidazolidin-2-one]
19 | < 1000 | CC#Cc1cccc(C2(O)[C@@H](C)N(c3ccc(Cl)cc3)C(=O)N2c2ccc(Cl)cc2)c1 (stereo partly drawn) [Compound 103-2, (5R)-1,3-bis(4-chlorophenyl)-4-hydroxy-5-methyl-4-(3-(prop-1-yn-1-yl)phenyl)imidazolidin-2-one]
20 | < 1000 | CCc1ccc(N2C(=O)N(c3ccc(CC)cc3)C(O)(c3cccc(C#N)c3)C2C)cc1 (centres unmarked) [Compound 104, 3-(1,3-bis(4-ethylphenyl)-4-hydroxy-5-methyl-2-oxoimidazolidin-4-yl)benzonitrile]
21 | < 1000 | Cc1ccc(N2C(=O)N(c3ccc(C)cc3)C(O)(c3cccc(C#N)c3)C2C)cc1 (centres unmarked) [Compound 105, 3-(4-hydroxy-5-methyl-2-oxo-1,3-di-p-tolylimidazolidin-4-yl)benzonitrile]
22 | < 1000 | CCC1N(c2ccc(Cl)cc2)C(=O)N(c2ccc(Cl)cc2)C1(O)c1cccc(C#N)c1 (centres unmarked) [Compound 106, 3-(1,3-bis(4-chlorophenyl)-5-ethyl-4-hydroxy-2-oxoimidazolidin-4-yl)benzonitrile]
23 | 1000 to 10000 | O=C1N(c2ccc(Cl)cc2)C(c2cccs2)C(O)(c2ccccc2)N1c1ccc(Cl)cc1 (centres unmarked) [Compound 109, 1,3-bis(4-chlorophenyl)-4-hydroxy-4-phenyl-5-(thiophen-2-yl)imidazolidin-2-one]
24 | < 1000 | CCCC1N(c2ccc(Cl)cc2)C(=O)N(c2ccc(Cl)cc2)C1(O)c1cccc(Cl)c1 (centres unmarked) [Compound 114, 4-(3-chlorophenyl)-1,3-bis(4-chlorophenyl)-4-hydroxy-5-propylimidazolidin-2-one]
25 | < 1000 | CCC[C@@H]1N(c2ccc(Cl)cc2)C(=O)N(c2ccc(Cl)cc2)C1(O)c1cccc(Cl)c1 (stereo partly drawn) [Compound 114-1, (5S)-4-(3-chlorophenyl)-1,3-bis(4-chlorophenyl)-4-hydroxy-5-propylimidazolidin-2-one]
26 | < 1000 | CCC[C@H]1N(c2ccc(Cl)cc2)C(=O)N(c2ccc(Cl)cc2)C1(O)c1cccc(Cl)c1 (stereo partly drawn) [Compound 114-2, (5R)-4-(3-chlorophenyl)-1,3-bis(4-chlorophenyl)-4-hydroxy-5-propylimidazolidin-2-one]
27 | < 1000 | CCCCC1N(c2ccc(Cl)cc2)C(=O)N(c2ccc(Cl)cc2)C1(O)c1cccc(C#N)c1 (centres unmarked) [Compound 116, 3-(5-butyl-1,3-bis(4-chlorophenyl)-4-hydroxy-2-oxoimidazolidin-4-yl)benzonitrile]
28 | < 1000 | CCCC[C@@H]1N(c2ccc(Cl)cc2)C(=O)N(c2ccc(Cl)cc2)C1(O)c1cccc(C#N)c1 (stereo partly drawn) [Compound 116-1, 3-((5S)-5-butyl-1,3-bis(4-chlorophenyl)-4-hydroxy-2-oxoimidazolidin-4-yl)benzonitrile]
29 | < 1000 | CCCC[C@H]1N(c2ccc(Cl)cc2)C(=O)N(c2ccc(Cl)cc2)C1(O)c1cccc(C#N)c1 (stereo partly drawn) [Compound 116-2, 3-((5R)-5-butyl-1,3-bis(4-chlorophenyl)-4-hydroxy-2-oxoimidazolidin-4-yl)benzonitrile]
30 | < 1000 | CCC1N(c2ccc(Cl)cc2)C(=O)N(c2ccc(Cl)cc2)C1(O)c1cccc(OC(F)F)c1 (centres unmarked) [Compound 118, 1,3-bis(4-chlorophenyl)-4-(3-(difluoromethoxy)phenyl)-5-ethyl-4-hydroxyimidazolidin-2-one]
31 | < 1000 | CC[C@@H]1N(c2ccc(Cl)cc2)C(=O)N(c2ccc(Cl)cc2)C1(O)c1cccc(OC(F)F)c1 (stereo partly drawn) [Compound 118-1, (5S)-1,3-bis(4-chlorophenyl)-4-(3-(difluoromethoxy)phenyl)-5-ethyl-4-hydroxyimidazolidin-2-one]
32 | < 1000 | CC[C@H]1N(c2ccc(Cl)cc2)C(=O)N(c2ccc(Cl)cc2)C1(O)c1cccc(OC(F)F)c1 (stereo partly drawn) [Compound 118-2, (5R)-1,3-bis(4-chlorophenyl)-4-(3-(difluoromethoxy)phenyl)-5-ethyl-4-hydroxyimidazolidin-2-one]
33 | < 1000 | CCCC1N(c2ccc(Br)cc2)C(=O)N(c2ccc(Br)cc2)C1(O)c1cccc(Cl)c1 (centres unmarked) [Compound 119, 1,3-bis(4-bromophenyl)-4-(3-chlorophenyl)-4-hydroxy-5-propylimidazolidin-2-one]
34 | < 1000 | CCC[C@@H]1N(c2ccc(Br)cc2)C(=O)N(c2ccc(Br)cc2)C1(O)c1cccc(Cl)c1 (stereo partly drawn) [Compound 119-1, (5S)-1,3-bis(4-bromophenyl)-4-(3-chlorophenyl)-4-hydroxy-5-propylimidazolidin-2-one]
35 | < 1000 | CCC[C@H]1N(c2ccc(Br)cc2)C(=O)N(c2ccc(Br)cc2)C1(O)c1cccc(Cl)c1 (stereo partly drawn) [Compound 119-2, (5R)-1,3-bis(4-bromophenyl)-4-(3-chlorophenyl)-4-hydroxy-5-propylimidazolidin-2-one]

Reference: patent publication US20190134005A1 (BioMarin Pharmaceutical Inc., priority 2016, published 2019)
